What all share (format): cell-based, Human
The subject of one assay is T47D. Briefly: CCK-8 tumor cell proliferation, T47D. To be noted: Table 8, designed based on ER inhibitors; 96 h. As for the experimental part: (§1) The tumor cells used herein were cultured in a cell culture medium listed in table 4 at 37° C. in an incubator with 5% CO2. Prior to experimentation, all cells used were correctly identified by STR profiling, and tested negative for mycoplasma through routine screenings.
(§2) IC50 values of the compounds of the present disclosure (including the compounds in Tables 1 and 3, and compounds of examples) were measured using the Meilun Cell Counting Kit-8 kit from Dalian Meilun Biotech Co., Ltd. Assay details are as follows: tumor cells were seeded in a 96-well plate at a density listed in Table 5. After 24 h, 100 μL of the inoculated cells were treated with 0.5 μL of the compounds of the present disclosure (including the compounds in Tables 1 and 3, and compounds of examples) at 10 different successively decreasing concentrations (starting at the highest concentration of 10 μM; 5-fold serial dilutions). After the cells were treated with the compounds of the present disclosure for a period of time, the cell viability detection reagent was added to the culture medium for cell viability assessment according to the instructions provided with the CCK-8 kit. […] The growth inhibition of the compounds of the present disclosure on cells was plotted by Prism Graphpad software, and the IC50 values of the compounds of the present disclosure were calculated therefrom.

In the next assay the test system is SR. The experiment in a line: CCK-8 tumor cell proliferation, SR. The settings on record: Homo sapiens; Table 18, FAK inhibitor based; SR; read-out: IC50 inhibiting proliferation of tumor cells, SR. The procedure, abridged: (§3)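 Cell viability (CCK-8) after compound exposure; IC50 calculated. Cells seeded, treated after 24 h, maximum dose 10 μM, 5-fold serial dilutions over 10 concentrations.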

The subject of another assay is Mino. The experiment in a line: CCK-8 tumor cell proliferation, Mino. The settings on record: Homo sapiens; Table 18, FAK inhibitor based; Mino; read-out: IC50 inhibiting proliferation of tumor cells, Mino. The procedure, abridged:
as §3

The subject of the next assay is PC-9. Briefly: CCK-8 tumor cell proliferation, PC-9. The settings on record: Homo sapiens; Table 18, FAK inhibitor based; PC-9; read-out: IC50 inhibiting proliferation of tumor cells, PC-9.
A further assay concerns HGC-27. The experiment in a line: CCK-8 tumor cell proliferation, HGC-27. The settings on record: Homo sapiens; Table 18, FAK inhibitor based; HGC-27; read-out: IC50 inhibiting proliferation of tumor cells, HGC-27. As for the experimental part: as §1, §2
A further assay concerns CCRF-CEM. The experiment in a line: CCK-8 tumor cell proliferation, CCRF-CEM. To be noted: Homo sapiens, CCRF-CEM, read-out: IC50 inhibiting proliferation of tumor cells, CCRF-CEM. An outline of the steps:
as §3

The subject of another assay is SW620. Briefly: CCK-8 tumor cell proliferation, SW620. The settings on record: Homo sapiens, SW-620, SW620, read-out: IC50 inhibiting proliferation of tumor cells, SW620. An outline of the steps: as §3
In a further assay the test system is MDA-MB-231. The experiment in a line: CCK-8 tumor cell proliferation, MDA-MB-231. To be noted: Homo sapiens; Table 18, FAK inhibitor based; MDA-MB-231; read-out: IC50 inhibiting proliferation of tumor cells, MDA-MB-231. An outline of the steps: as §3
For the next assay, the system named is SU-DHL-4. Briefly: CCK-8 tumor cell proliferation, SU-DHL-4. The settings on record: Homo sapiens, Table 19, IRAK4 inhibitor based, read-out: IC50 inhibiting proliferation of tumor cells, SU-DHL-4. How it is done: as §1, §2
The next assay relates to LNcap. Briefly: CCK-8 tumor cell proliferation, LNcap. The settings on record: Homo sapiens; Table 19, IRAK4 inhibitor based; Lncap; read-out: IC50 inhibiting proliferation of tumor cells, Lncap. The procedure, abridged:
as §3

Another assay relates to Jurkat. The experiment in a line: CCK-8 tumor cell proliferation, Jurkat. To be noted: Homo sapiens, Table 19, IRAK4 inhibitor based, read-out: IC50 inhibiting proliferation of tumor cells, Jurkat. The procedure, abridged: as §3
Another assay relates to CAL-62. Briefly: CCK-8 tumor cell proliferation, CAL-62. The settings on record: Homo sapiens; Table 19, IRAK4 inhibitor based; CAL-62; read-out: IC50 inhibiting proliferation of tumor cells, CAL-62. The procedure, abridged:
as §3

The mark [1] stands for this setting: Table 19, IRAK4 inhibitor based.

Experimental findings from patent publication US20260199323A1, “LIGAND COMPOUNDS FOR E3 UBIQUITIN LIGASE, PROTEIN DEGRADERS DEVELOPED ON BASIS OF LIGAND COMPOUNDS, AND USES THEREOF” (GLUETACS THERAPEUTICS (SHANGHAI) CO., LTD., priority 2021, published 2026) are described below.

Each structure is given as a SMILES string. Read-outs that look alike come from different tables or passages of the source.

Consider `CN(CCOc1ccc(/C(=C(/CCCl)c2ccccc2)c2ccccc2)cc1)Cc1ccc2c(c1)CN(C1CCC(=O)NC1=O)C2=O` (stereo not shown) [GT-02970, (Z)-3-(5-(((2-(4-(4-chloro-1,2-diphenylbut-1-en-1-yl)phenoxy)ethyl)(methyl)amino)methyl)-1-oxoisoindolin-2-yl)piperidine-2,6-dione], for which the “IC50 for inhibiting the proliferation of tumor cells, T47D” value in the assay on T47D is given as “A+”.

In the case of `CNC(=O)c1ccccc1Nc1cc(Nc2ccc(N3CCN(Cc4ccc5c(c4)CN(C4CCC(=O)NC4=O)C5=O)CC3)cc2OC)ncc1C(F)(F)F` (stereo not shown) [GT-03014, 2-((2-((4-(4-((2-(2,6-dioxopiperidin-3-yl)-1-oxoisoindolin-5-yl)methyl)piperazin-1-yl)-2-methoxyphenyl)amino)-5-(trifluoromethyl)pyridin-4-yl)amino)-N-methylbenzamide], the IC50 was 100 to 500 nM in the assay on SR; less than 50 nM in the assay with Mino; 1000 to 5000 nM with PC-9; 1000 to 5000 nM in the assay with HGC-27; less than 50 nM in the assay on CCRF-CEM (Table 18, FAK inhibitor based); less than 50 nM with SW620 (Table 18, FAK inhibitor based). Besides, the IC50 in the assay with MDA-MB-231 was 50 to 100 nM.

Consider `CNC(=O)c1ccccc1Nc1cc(Nc2ccc(N3CCC(NCc4ccc5c(c4)CN(C4CCC(=O)NC4=O)C5=O)CC3)cc2OC)ncc1C(F)(F)F` (stereo not shown) [GT-03213, 2-((2-((4-(4-(((2-(2,6-dioxopiperidin-3-yl)-1-oxoisoindolin-5-yl)methyl)amino)piperidin-1-yl)-2-methoxyphenyl)amino)-5-(trifluoromethyl)pyridin-4-yl)amino)-N-methylbenzamide], for which the IC50 in the assay with SR is less than 50 nM; with PC-9, 500 to 1000 nM; in the assay with HGC-27, 500 to 1000 nM; in the assay with CCRF-CEM (Table 18, FAK inhibitor based), 100 to 500 nM; with SW620 (Table 18, FAK inhibitor based), 500 to 1000 nM; with MDA-MB-231, less than 50 nM.

As to `CNC(=O)c1ccccc1Nc1cc(Nc2ccc(N3CCC(N4CCN(Cc5ccc6c(c5)CN(C5CCC(=O)NC5=O)C6=O)CC4)CC3)cc2OC)ncc1C(F)(F)F` (stereo not shown) [GT-03266, 2-((2-((4-(4-(4-((2-(2,6-dioxopiperidin-3-yl)-1-oxoisoindolin-5-yl)methyl)piperazin-1-yl)piperidin-1-yl)-2-methoxyphenyl)amino)-5-(trifluoromethyl)pyridin-4-yl)amino)-N-methylbenzamide], the IC50 lay in the range of 50 to 100 nM in the assay on SR; 1000 to 5000 nM with Mino; 100 to 500 nM with PC-9; 500 to 1000 nM in the assay with HGC-27; 100 to 500 nM with CCRF-CEM (Table 18, FAK inhibitor based); 100 to 500 nM in the assay with SW620 (Table 18, FAK inhibitor based). Moreover, in the assay with MDA-MB-231, the IC50 fell in the range of 100 to 500 nM.

`CNC(=O)c1ccccc1Nc1cc(Nc2ccc(N3CCC(N4CCN(Cc5ccc6c(c5F)CN(C5CCC(=O)NC5=O)C6=O)CC4)CC3)cc2OC)ncc1C(F)(F)F` (stereo not shown) [GT-03595, 2-((2-((4-(4-(4-((2-(2,6-dioxopiperidin-3-yl)-4-fluoro-1-oxoisoindolin-5-yl)methyl)piperazin-1-yl)piperidin-1-yl)-2-methoxyphenyl)amino)-5-(trifluoromethyl)pyridin-4-yl)amino)-N-methylbenzamide]: the IC50 in the assay on SR is less than 50 nM; with PC-9, 500 to 1000 nM; in the assay with HGC-27, 100 to 500 nM; with CCRF-CEM (Table 18, FAK inhibitor based) it was 100 to 500 nM; with MDA-MB-231, 100 to 500 nM.

As for `CNC(=O)c1ccccc1Nc1cc(Nc2ccc(N3CCC(N4CCN(Cc5cc6c(cc5F)C(=O)N(C5CCC(=O)NC5=O)C6)CC4)CC3)cc2OC)ncc1C(F)(F)F` (stereo not shown) [GT-03596, 2-((2-((4-(4-(4-((2-(2,6-dioxopiperidin-3-yl)-6-fluoro-1-oxoisoindolin-5-yl)methyl)piperazin-1-yl)piperidin-1-yl)-2-methoxyphenyl)amino)-5-(trifluoromethyl)pyridin-4-yl)amino)-N-methylbenzamide], the IC50 in the assay on SR lay within 50 to 100 nM; with PC-9 it was 1000 to 5000 nM; in the assay on HGC-27, 500 to 1000 nM; in the assay with CCRF-CEM (Table 18, FAK inhibitor based), 100 to 500 nM; in the assay on MDA-MB-231, 500 to 1000 nM.

With `CNC(=O)c1ccccc1Nc1cc(Nc2ccc(N3CCC(N4CCN(Cc5cc(F)c6c(c5)CN(C5CCC(=O)NC5=O)C6=O)CC4)CC3)cc2OC)ncc1C(F)(F)F` (stereo not shown) [GT-03597, 2-((2-((4-(4-(4-((2-(2,6-dioxopiperidin-3-yl)-7-fluoro-1-oxoisoindolin-5-yl)methyl)piperazin-1-yl)piperidin-1-yl)-2-methoxyphenyl)amino)-5-(trifluoromethyl)pyridin-4-yl)amino)-N-methylbenzamide], the IC50 lay within 50 to 100 nM in the assay with SR; 500 to 1000 nM in the assay with PC-9; 500 to 1000 nM in the assay on HGC-27; 100 to 500 nM with CCRF-CEM (Table 18, FAK inhibitor based); 500 to 1000 nM with MDA-MB-231.

Regarding `O=C1CCC(N2Cc3c(ccc(CN4CCC(n5cc(NC(=O)c6coc(-c7ccnc(NCC8CC8)c7)n6)c(C(F)F)n5)CC4)c3F)C2=O)C(=O)N1` (stereo not shown) [GT-04154, 2-(2-((cyclopropylmethyl)amino)pyridin-4-yl)-N-(3-(difluoromethyl)-1-(1-((2-(2,6-dioxopiperidin-3-yl)-4-fluoro-1-oxoisoindolin-5-yl)methyl)piperidin-4-yl)-1H-pyrazol-4-yl)oxazole-4-carboxamide], the IC50 in the assay with SU-DHL-4, in the assay with LNcap, in the assay on Jurkat, in the assay with CCRF-CEM (setting [1]), with SW620 (setting [1]) and with CAL-62 was less than 50 nM throughout.

Take `O=C1CCC(N2Cc3cc(CN4CCC(n5cc(NC(=O)c6coc(-c7ccnc(NCC8CC8)c7)n6)c(C(F)F)n5)CC4)c(F)cc3C2=O)C(=O)N1` (stereo not shown) [GT-04171, 2-(2-((cyclopropylmethyl)amino)pyridin-4-yl)-N-(3-(difluoromethyl)-1-(1-((2-(2,6-dioxopiperidin-3-yl)-6-fluoro-1-oxoisoindolin-5-yl)methyl)piperidin-4-yl)-1H-pyrazol-4-yl)oxazole-4-carboxamide]: the IC50 in the assay with SU-DHL-4, in the assay with LNcap, with Jurkat, in the assay on CCRF-CEM (setting [1]), with SW620 (setting [1]) and in the assay with CAL-62 was less than 50 nM each time.

For the molecule `O=C1CCC(N2Cc3cc(CN4CCC(n5cc(NC(=O)c6coc(-c7ccnc(NCC8CC8)c7)n6)c(C(F)F)n5)CC4)cc(F)c3C2=O)C(=O)N1` (stereo not shown) [GT-04172, 2-(2-((cyclopropylmethyl)amino)pyridin-4-yl)-N-(3-(difluoromethyl)-1-(1-((2-(2,6-dioxopiperidin-3-yl)-7-fluoro-1-oxoisoindolin-5-yl)methyl)piperidin-4-yl)-1H-pyrazol-4-yl)oxazole-4-carboxamide], the IC50 with SU-DHL-4 was 100 to 500 nM; with LNcap it was less than 50 nM; in the assay with Jurkat it was less than 50 nM; in the assay on CCRF-CEM (setting [1]) it was less than 50 nM; with SW620 (setting [1]), less than 50 nM; in the assay on CAL-62, less than 50 nM.

Take `CNC(=O)c1ccccc1Nc1cc(Nc2ccc(N3CCOCC3)cc2OC)ncc1C(F)(F)F` [PND-1186, reference compound]: the IC50 in the assay with SR is 100 to 500 nM; with Mino, 500 to 1000 nM; with PC-9, 500 to 1000 nM; in the assay on HGC-27, 1000 to 5000 nM; with CCRF-CEM (Table 18, FAK inhibitor based), 500 to 1000 nM; with SW620 (Table 18, FAK inhibitor based), less than 50 nM. In the assay with MDA-MB-231, the IC50 is 1000 to 5000 nM.
